Results: patent US10208033B2, “β-carboline, dihydro-β-carboline and tetrahydro-β-carboline alkaloid derivatives and preparation methods same and use in aspects of preventing and treating plant viruses, fungicides and insecticides” (NANKAI UNIVERSITY, priority 2013, dated 2019)
Structures can show the parent of a compound that is named as a salt.

Tests used:
cucumber fusarium wilt = experiment: Fungicidal (bactericidal) activity in vitro, PDA colony diameter; format: cell-based
Cercospora arachidicola = experiment: as above; format: cell-based
Macrophoma kawatsukai = experiment: as above; format: cell-based
Alternaria solani = experiment: as above; format: cell-based
Fusarium graminearumt = experiment: microbe, parasite or virus in culture; format: cell-based; settings: 50 mg/kg
potato late blight = experiment: microbe, parasite or virus in culture; format: cell-based
Sclerotinia scleotiorum = experiment: Fungicidal (bactericidal) activity in vitro, PDA colony diameter; format: cell-based
Botrytis cinerea = experiment: as above; format: cell-based
Rhizoctonia solani = experiment: as above; format: cell-based
Phytophthora capsici = experiment: as above; format: cell-based
Fusarium fujikuroi = experiment: as above; format: cell-based
Rhizoctonia cereali = experiment: as above; format: cell-based
Bipolaria maydis = experiment: organism not typed; format: cell-based; settings: 50 mg/kg
[1] = system: Colletotrichum orbiculare; experiment: Fungicidal (bactericidal) activity in vitro, PDA colony diameter; format: cell-based
armyworms = format: in vivo; settings: concentration 600 mg/kg
cotton bollworms = experiment: whole plant or invertebrate; settings: in vivo
Description: Experimental method of cotton bollworms: feed and drug mixing method: measure 3 mL of prepared solution and add it to about 27 g of newly prepared feed, thereby obtaining needed concentration through dilution by 10 times.

mosquito larvae = experiment: whole plant or invertebrate; settings: in vivo
Description: Experimental method of mosquito larvae: culex pipiens pallens, a normal colony raised indoors. Weigh about 5 mg of the compound for test, put it in a penicillin vial, add 5 mL of acetone (or an appropriate solvent), and shake and dissolve it to obtain a 1000 ppm mother solution. Pipette 0.5 mL of the mother solution, add it to a 100 mL beaker filled with 89.9 mL of water, select 10 mosquito larvae at the beginning of the fourth instar, and pour them to a beaker together with 10 mL of feeding solution. The concentration of the drug solution is 5 ppm. […] Use an aqueous solution containing 0.5 mL of test solvent as a blank.

corn borers = settings: in vivo
[2] = system: tobacco mosaic virus (TMV); experiment: Anti-TMV in vitro effect (half-leaf soaking); format: cell-based, tobacco mosaic virus (host Nicotiana tabacum L.cv.Xanthi NN); settings: for inhibition at 100 µg/mL / inhibition at 500 µg/mL: Tobacco mosaic virus, read-out: Relative inhibition rate (%) In vitro activity
[3] = system: tobacco mosaic virus (TMV); experiment: Anti-TMV in vivo inactivation; design: species or system tobacco mosaic virus (host Nicotiana tabacum L.cv.Xanthi NN); settings: for inhibition at 100 µg/mL / inhibition at 500 µg/mL: Tobacco mosaic virus, read-out: Relative inhibition rate (%) In vivo inactivation
[4] = system: tobacco mosaic virus (TMV); experiment: Anti-TMV in vivo therapeutic effect; design: species or system tobacco mosaic virus (host Nicotiana tabacum L.cv.Xanthi NN); settings: for inhibition at 100 µg/mL / inhibition at 500 µg/mL: Tobacco mosaic virus, read-out: Relative inhibition rate (%) In vivo therapy
[5] = system: tobacco mosaic virus (TMV); experiment: Anti-TMV in vivo protective effect; design: species or system tobacco mosaic virus (host Nicotiana tabacum L.cv.Xanthi NN); settings: for inhibition at 100 µg/mL / inhibition at 500 µg/mL: Tobacco mosaic virus, read-out: Relative inhibition rate (%) In vivo protection

## CCOC(=O)[C@@H]1Cc2c([nH]c3ccccc23)[C@H](c2cccnc2)N1 [Ib-11, (1S, 3S)-1-(pyridine-3)-2,3,4,9-tetrahydropyridino [3,4-b] indol-3-ethyl formate]
Cucumber fusarium wilt
  Bactericidal activity (%) Cucumber fusarium wilt: 23.8%
Cercospora arachidicola
  Bactericidal activity (%) Cercospora arachidicola: 42.9%
Macrophoma kawatsukai
  Bactericidal activity (%) Macrophoma kawatsukai: 35.3%
Alternaria solani
  Bactericidal activity (%) Alternaria solani: 55.6%
Fusarium graminearumt
  Bactericidal activity (%) Fusarium graminearumt: 28.6%
Potato late blight
  Bactericidal activity (%) potato late blight: 35.0%
Sclerotinia scleotiorum
  Bactericidal activity (%) Sclerotinia scleotiorum: 76.0%
Botrytis cinerea
  Bactericidal activity (%) Botrytis cinerea: 40.9%
Rhizoctonia solani
  Bactericidal activity (%) Rhizoctonia solani: 17.9%
Phytophthora capsici
  Bactericidal activity (%) Phytophthora capsici: 36.4%
Fusarium fujikuroi
  Bactericidal activity (%) Fusarium fujikuroi: 28.6%
Rhizoctonia cereali
  Bactericidal activity (%) Rhizoctonia cereali: 65.6%
Bipolaria maydis
  Bactericidal activity (%) Bipolaria maydis: 15.8%
[1]
  Bactericidal activity (%) Colletotrichum orbiculare: 42.9%
armyworms
  Armyworm Mortality (%): 5%
Cotton bollworms
  Cotton bollworm Mortality (%): 20%
Mosquito larvae
  Mosquito larvae Mortality (%): 15%
Corn borers
  Corn borer Mortality (%): 5%

## COc1cc2c3c(c4cc(OC)c(OC)cc4c2cc1OC)CN1CCC[C@H]1C3.O=C(O)C[C@@H](O)C(=O)O [NK-007, reference compound]
[2]; treatment dose 100 μg/mL
  Relative inhibition rate (%) In vitro activity: 38.7%
[2]; treatment dose 500 μg/mL
  Relative inhibition rate (%) In vitro activity: 65.4%
[3]; treatment dose 100 μg/mL
  Relative inhibition rate (%) In vivo inactivation: 33.9%
[3]; treatment dose 500 μg/mL
  Relative inhibition rate (%) In vivo inactivation: 65.2%
[4]; treatment dose 100 μg/mL
  Relative inhibition rate (%) In vivo therapy: 34.9%
[4]; treatment dose 500 μg/mL
  Relative inhibition rate (%) In vivo therapy: 67.2%
[5]; treatment dose 100 μg/mL
  Relative inhibition rate (%) In vivo protection: 36.2%
[5]; treatment dose 500 μg/mL
  Relative inhibition rate (%) In vivo protection: 67.9%

## CNCC(=O)N[C@@H](CO)C(=O)N[C@H]1[C@H](O)[C@@H](O)[C@H](n2ccc(N)nc2=O)O[C@@H]1C(N)=O [Ningnanmycin, reference compound]
[2]; treatment dose 100 μg/mL
  inhibition at 100 µg/mL: 26.8%
[2]; treatment dose 500 μg/mL
  inhibition at 500 µg/mL: 73.3%
[3]; treatment dose 100 μg/mL
  inhibition at 100 µg/mL: 38.4%
[3]; treatment dose 500 μg/mL
  inhibition at 500 µg/mL: 68%
[4]; treatment dose 100 μg/mL
  inhibition at 100 µg/mL: 20%
[4]; treatment dose 500 μg/mL
  inhibition at 500 µg/mL: 54.2%
[5]; treatment dose 100 μg/mL
  inhibition at 100 µg/mL: 23.1%
[5]; treatment dose 500 μg/mL
  inhibition at 500 µg/mL: 65.4%

## NC(=O)c1ncn([C@@H]2O[C@H](CO)[C@@H](O)[C@H]2O)n1 [Virazole, reference compound]
[2]; treatment dose 100 μg/mL
  inhibition at 100 µg/mL: 15.3%
[2]; treatment dose 500 μg/mL
  inhibition at 500 µg/mL: 39.5%
[3]; treatment dose 100 μg/mL
  inhibition at 100 µg/mL: 12.9%
[3]; treatment dose 500 μg/mL
  inhibition at 500 µg/mL: 36.3%
[4]; treatment dose 100 μg/mL
  inhibition at 100 µg/mL: 11.9%
[4]; treatment dose 500 μg/mL
  inhibition at 500 µg/mL: 35.4%
[5]; treatment dose 100 μg/mL
  inhibition at 100 µg/mL: 16.2%
[5]; treatment dose 500 μg/mL
  inhibition at 500 µg/mL: 37.6%
